Measured values as given in US20210228484A1, “VETERINARY THICK GEL COMPOSITION OF HIGH PALATABILITY CONTAINING ANTIOXIDANTS TO DECREASE SARCOPENIA, OSTEOPENIA AND DNA DAMAGE FROM OXIDATIVE STRESS IN DOGS, AND PROCEDURE FOR ITS OBTENTION” (priority 2018, published 2021).

System: oxidative stress
Experiment: Overall effect of the antioxidant dietary complement on oxidative stress biomarkers in dogs
Type: in vivo
Settings: provided alone
Description: The evaluated biomarkers let us assure that the provision of antioxidants, particularly the mixtures of at least two antioxidants selected from Resveratrol. Pterostilbene and Vitamin E, as a dietary complement had the following effects. 1) decrease of oxidative stress, 2) highly significant decrease in the loss of skeletal muscle (CPK), 3) highly significant decrease in the loss of bone mass (ALP), and 4) decrease of 12-15% in the loss of (8(OH)dG) DNA. […] It is also possible to observe that the Vitamin E that was provided alone produced a lesser effect, compared to that of the mixture of two antioxidants that were jointly provided.

In the case of `CC(=O)Oc1c(C)c(C)c2c(c1C)CCC(C)(CCCC(C)CCCC(C)CCCC(C)C)O2` (racemic) [Vitamin E, DL-alpha tocopherol acetate], the “effect on the biomarkers compared to the mixture of two antioxidants” value was “lesser effect”.
